Measurements taken from US9700047B2, “Macrocyclic picolinamides as fungicides” (Dow AgroSciences LLC, priority 2014, dated 2017).
Like-named read-outs stand apart in the source and are kept apart here.

Tested on: Puccinia triticina; Synonym: Puccinia recondita f sp. tritici
Test: Wheat brown rust (PUCCRT) disease control on wheat seedlings
Assay type: in vivo
Conditions: Low Volume activity at 121.5 g/H
Protocol: All fungicides were evaluated using the aforementioned method for their activity vs. all target diseases, unless stated otherwise. Wheat leaf blotch and brown rust activity were also evaluated using track spray applications, in which case the fungicides were formulated as EC formulations, containing 0.1% Trycol 5941 in the spray solutions. Wheat plants (variety Yuma) were grown from seed in a greenhouse in 50% mineral soil/50% soil-less Metro mix until the first leaf was fully emerged, with 7-10 seedlings per pot. These plants were inoculated with an aqueous spore suspension of Puccinia triticina either prior to or after fungicide treatments. […] The plants were then transferred to a greenhouse set at 24° C. for disease to develop. Fungicide formulation, application and disease assessment followed the procedures as described in the Example A.

[1] = 24 h, 1 Day Protectant, read-out: PUCCRT 1DP % Control rating
[2] = 72 h, 3 Day Curative, read-out: PUCCRT 3DC % Control rating

SMILES | pest or weed control at 121.5 g/ha [1] | pest or weed control at 121.5 g/ha [2]
COc1ccnc(C(=O)N[C@H]2CCC[C@H](Cc3ccc(C(F)(F)F)cc3)[C@@H](Cc3ccc(F)cc3)[C@H](C)OC2=O)c1OCOC(C)=O [Compound 39] | < 70% | < 70%
COc1ccnc(C(=O)N[C@H]2CCC[C@H](Cc3ccc(C(F)(F)F)cc3)[C@@H](Cc3ccc(F)cc3)[C@H](C)OC2=O)c1OC(C)=O [Compound 40] | < 70% | < 70%
COc1ccnc(C(=O)N[C@H]2CCC[C@H](Cc3ccc(C(F)(F)F)cc3)[C@@H](Cc3ccc(F)cc3)[C@H](C)OC2=O)c1OCOC(=O)C(C)C [Compound 41] | < 70% | < 70%
COc1ccnc(C(=O)N[C@H]2CCC[C@H](CCC(C)C)[C@@H](C3CCCC3)[C@H](C)OC2=O)c1OCOC(C)=O [Compound 42] | > 70% | < 70%
COc1ccnc(C(=O)N[C@H]2CCC[C@H](CCC(C)C)[C@@H](C3CCCC3)[C@H](C)OC2=O)c1OC(C)=O [Compound 43] | > 70% | < 70%
COc1ccnc(C(=O)N[C@H]2CCC[C@H](CCC(C)C)[C@@H](C3CCCC3)[C@H](C)OC2=O)c1OCOC(=O)C(C)C [Compound 44] | > 70% | < 70%
COc1ccnc(C(=O)N[C@H]2CCC[C@H](Cc3ccccc3)[C@@H](CCC(C)C)[C@H](C)OC2=O)c1OC(C)=O [Compound 45] | > 70% | < 70%
CCC[C@H]1CCC[C@H](NC(=O)c2nccc(OC)c2OC(C)=O)C(=O)O[C@@H](C)[C@@H]1Cc1ccc(F)cc1 [Compound 46] | > 70% | > 70%
COc1ccnc(C(=O)N[C@H]2CCC[C@H](Cc3ccccc3)[C@@H](CCC(C)C)[C@H](C)OC2=O)c1OCOC(C)=O [Compound 47] | > 70% | < 70%
CCC[C@H]1CCC[C@H](NC(=O)c2nccc(OC)c2OCOC(C)=O)C(=O)O[C@@H](C)[C@@H]1Cc1ccc(F)cc1 [Compound 48] | > 70% | > 70%
COc1ccnc(C(=O)N[C@H]2CCC[C@H](Cc3ccccc3)[C@@H](CCC(C)C)[C@H](C)OC2=O)c1OC(=O)C(C)C [Compound 49] | < 70% | < 70%
COc1ccnc(C(=O)N[C@H]2CCC[C@H](Cc3ccccc3)[C@@H](CCC(C)C)[C@H](C)OC2=O)c1OCOC(=O)C(C)C [Compound 50] | > 70% | < 70%
CCOCC(=O)OCOc1c(OC)ccnc1C(=O)N[C@H]1CCC[C@H](Cc2ccccc2)[C@@H](CCC(C)C)[C@H](C)OC1=O [Compound 51] | > 70% | < 70%
COc1ccnc(C(=O)N[C@H]2CCC[C@H](Cc3ccccc3)[C@@H](c3ccccc3)[C@H](C)OC2=O)c1OCOC(C)=O [Compound 52] | > 70% | < 70%
COc1ccnc(C(=O)N[C@H]2CCC[C@H](Cc3ccccc3)[C@@H](c3ccccc3)[C@H](C)OC2=O)c1OC(C)=O [Compound 53] | > 70% | < 70%
CCC[C@H]1CCC[C@H](NC(=O)c2nccc(OC)c2OCOC(C)=O)C(=O)O[C@@H](C)[C@@H]1c1ccccc1 [Compound 54] | > 70% | > 70%
CCC[C@H]1CCC[C@H](NC(=O)c2nccc(OC)c2OC(C)=O)C(=O)O[C@@H](C)[C@@H]1c1ccccc1 [Compound 55] | > 70% | > 70%
COc1ccnc(C(=O)N[C@H]2CCC[C@H](CCCc3ccccc3)[C@@H](CC(C)C)[C@H](C)OC2=O)c1OC(C)=O [Compound 56] | > 70% | < 70%
COc1ccnc(C(=O)N[C@H]2CCC[C@H](CCCc3ccccc3)[C@@H](Cc3ccc(OC(F)(F)F)cc3)[C@H](C)OC2=O)c1OC(C)=O [Compound 57] | < 70% | < 70%
COc1ccnc(C(=O)N[C@H]2CCC[C@H](CCCc3ccccc3)[C@@H](Cc3ccc(OC(F)(F)F)cc3)[C@H](C)OC2=O)c1OC(=O)C(C)C [Compound 58, 4-methoxy-2-(((3S,7S,8R,9S)-9-methyl-2-oxo-7-(3-phenylpropyl)-8-(4-(trifluoromethoxy)benzyl)oxonan-3-yl)carbamoyl)pyridin-3-yl isobutyrate] | < 70% | < 70%
COc1ccnc(C(=O)N[C@H]2CCC[C@H](CCCc3ccccc3)[C@@H](Cc3ccc(OC(F)(F)F)cc3)[C@H](C)OC2=O)c1OCOC(C)=O [Compound 59] | > 70% | < 70%
